This note sets out measurements from US20240092774A1, “HETEROAROMATIC COMPOUNDS AND USES THEREOF” (HUTCHISON MEDIPHARMA LIMITED, priority 2020, published 2024).

SMILES strings stand for the structures. pIC50: −log10 of the molar value.

In assay [1] the target is CSF1R phosphorylation in THP-1 cells (Homo sapiens (Human), UniProt P07333). The assay can be described thus: Detection of CSF1R phosphorylation activity at cell level (p-CSF1R ELISA, M-CSF stimulated THP-1 cells). The note with it: THP-1 cells, M-CSF stimulation, p-CSF1R ELISA; read-out: IC50. The format is cell-based. As for the experimental part: THP-1 (ATCC), human acute monocytic leukemia cells.
Chain of CSF1R phosphorylation in THP-1 cells (P07333 20-972): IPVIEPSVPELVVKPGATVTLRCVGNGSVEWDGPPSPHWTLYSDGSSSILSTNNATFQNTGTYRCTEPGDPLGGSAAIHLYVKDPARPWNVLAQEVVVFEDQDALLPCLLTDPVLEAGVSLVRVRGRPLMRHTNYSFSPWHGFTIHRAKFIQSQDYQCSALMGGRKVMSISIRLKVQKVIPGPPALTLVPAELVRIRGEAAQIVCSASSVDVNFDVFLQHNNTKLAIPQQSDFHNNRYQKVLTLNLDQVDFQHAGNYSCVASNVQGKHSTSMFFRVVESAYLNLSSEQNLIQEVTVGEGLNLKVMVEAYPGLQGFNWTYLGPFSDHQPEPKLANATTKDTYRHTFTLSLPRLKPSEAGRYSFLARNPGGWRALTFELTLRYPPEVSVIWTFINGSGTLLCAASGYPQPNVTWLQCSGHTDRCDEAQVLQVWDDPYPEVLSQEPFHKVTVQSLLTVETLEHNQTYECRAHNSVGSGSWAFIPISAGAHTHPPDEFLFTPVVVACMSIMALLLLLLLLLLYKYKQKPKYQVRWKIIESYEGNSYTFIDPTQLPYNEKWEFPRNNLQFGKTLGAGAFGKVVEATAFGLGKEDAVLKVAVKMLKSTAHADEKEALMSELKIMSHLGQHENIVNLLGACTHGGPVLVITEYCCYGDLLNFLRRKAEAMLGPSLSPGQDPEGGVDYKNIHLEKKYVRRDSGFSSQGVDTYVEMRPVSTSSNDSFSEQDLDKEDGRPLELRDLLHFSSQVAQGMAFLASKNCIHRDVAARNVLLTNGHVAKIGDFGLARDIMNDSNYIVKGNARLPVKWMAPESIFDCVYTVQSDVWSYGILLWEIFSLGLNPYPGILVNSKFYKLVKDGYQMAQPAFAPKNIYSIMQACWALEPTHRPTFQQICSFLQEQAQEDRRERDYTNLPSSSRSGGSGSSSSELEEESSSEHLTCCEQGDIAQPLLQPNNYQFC
3. Treatment of cells and preparation of lysis buffer
5 μL. of the diluted compound was added to the 50 μL cell culture system, the culture was cultured in a 5% CO2, 37° C. cell incubator for 60 min, 300 ng/mL of M-CSF was added to the cells, and the mixture was stimulated in the 37° C. cell incubator for 1 min, added 50 μL of cell lysis buffer, and stored in a refrigerator at −80° C.
100 μL/well of the p-CSF1R capture antibody diluted to 0.8 μg/mL with PBS was added to the ELISA plate, and the plate was coated on a shaker at room temperature overnight. The culture was washed with PBST, and then added blocking solution and incubated at room temperature for 2 h. The culture was washed with PBST, added 90 μL of cell lysis buffer, and incubated on a shaker at 25° C. for 2 h. The plate was washed with PBST three times, added 100 μL of anti-p-tyrosine-HRP detection antibody diluted with 0.1% PBS-BSA diluent, and incubated on a shaker at 25° C. for 2 h. The plate was washed with PBST washing liquid, added 100 μL of chromogenic substrate and incubated at room temperature for 10-20 min. The reaction was stopped by adding 50 μL of 2N H2SO4. The optical density signal (450/570 nm) of each well was detected in Labsystems Multiskan K3 or Envision.
wherein • Drug-treated well read-out: indicating the optical density signal of a cell well with the test compound treatment. • Background read-out: indicating the optical density signal of a well without cells but with cell lysis buffer. • Cell well read-out: indicating the optical density signal of a cell well not treated with the compound.
6. Calculation of IC50: obtained by using XL-Fit 5.3 software, […]

Assay [2] concerns the target Recombinant human CSF1R kinase (Homo sapiens (Human), UniProt P07333). Description: Measurement of CSF1R kinase activity at molecular level (Z-LYTE). The assay is classed as biochemical. As to conditions: Z-LYTE Tyr 1 peptide. As to the method: Invitrogen, PV3227; • Development reagent B: Invitrogen, PV3295; • Development buffer: Invitrogen. P3127; • Stopping solution: Invitrogen, P3094; • Recombinant human CSF1R kinase: Invitrogen, P[…]; • 384 well plate, black: Corning. 3575; • Envision: Perkin Elmer. 2. […] The test compound was diluted in gradient to 4-fold the reaction concentration and the concentration of DMSO was kept at 8%. […] The mixture was mixed gently with a pipette. • 4) A phosphorylated peptide substrate solution (PP solution): 0.4 μL of Z-LYTETM Tyr1 phosphorylated peptide substrate was added to 99.6 μl of 1.33× kinase buffer. • 5) ATP solution: 10 mM of ATP was diluted to 760 μM with 1.33× kinase buffer to prepare ATP solution. • 6) Development solution: Development reagent B was diluted with Development buffer at a ratio of 1:200. 3. […] 2.5 μL of 4× test compound was added to each reaction well of the 384 plate, and the corresponding volume of 8% DMSO was added to the control well. The plate was placed on ice. […] After adding the reaction components, the 384-well plate was sealed and incubated at 25-30° C. for 1 h in dark. 2) Development Reaction 5 μL of Development solution was added to each well, sealed and incubated at 25-30° C. for another 1 h in dark. 3) Reaction Stopping and Plate Reading 5 μL of stopping solution was added to each well. The Coumarin value (excitation at 400 nm, emission at 445 nm) and Fluorescein value (excitation at 400 nm, emission at 520 nm) were measured, respectively. 4. […] Coumarin emission read-out (445 nm)/Fluorescein emission read-out (520 nm); • C3 445 nm: 100% phosphorylated Coumarin emission read-out; • C3 520 nm: 100% phosphorylated Fluorescein emission read-out; • C1 445 nm: 0% phosphorylated Coumarin emission read-out; • C1 520 nm: 0% phosphorylated Fluorescein emission read-out. […] 5. IC50 values: calculated by using software XL-FitTM (version 5.3) supplied by ID Business Solutions (Guildford, UK), which is an additional software to Microsoft Excel.

Chain of Recombinant human CSF1R kinase (P07333 20-972): as above

As for `OCCn1cc(-c2cc(Oc3cnc4c(c3)OCC(c3ccc(C5CC5)cc3)O4)ccn2)cn1` (stereo not shown) [Compound 52, 2-(4-(4-((3-(4-cyclopropylphenyl)-2,3-dihydro-[1,4]dioxino[2,3-b]pyridin-7-yl)oxy)pyridin-2-yl)-1H-pyrazol-1-yl)ethan-1-ol], the pIC50 is 7.47 in assay [1] and 7.72 in assay [2].
As for `COc1cc(Oc2ccc3ncc(C)c(=O)n3c2)cnc1OCc1ccc(C2CC2(F)F)cc1` (stereo not shown) [Compound 15], the pIC50 in assay [1] was 7.82; in assay [2], 8.00.
Consider `COc1cc(Oc2ccc3ncc(C)c(=O)n3c2)cnc1OCc1ccc(C)cc1` [Compound 44], for which the pIC50 is 7.72 in assay [1] and 8.40 in assay [2].
As for `COc1ccc([C@@H]2COc3cc(Oc4ccc5nccc(=O)n5c4)cnc3O2)cn1` [Compound 85], the results for the pIC50 in assay [1] and in assay [2] were 6.81 and 7.77, respectively.
In the case of `COc1ccccc1CCOc1ncc(Oc2ccc3ncc(C)c(=O)n3c2)cc1OC` [Compound 38], the values for the pIC50 in assay [1] and in assay [2] were 6.42 and 7.62, respectively.
Turning to `COc1ccc([C@@H]2COc3cc(Oc4ccc5ncc(C)c(=O)n5c4)cnc3O2)nc1` [Compound 80], the pIC50 is 7.66 in assay [1] and 7.89 in assay [2].
For the molecule `COc1ccc([C@@H]2COc3cc(Oc4ccnc(-c5cnn(C)c5)c4)cnc3O2)cc1` [Compound 67], the pIC50 in assay [1] was 7.80; in assay [2] it was 8.30.
For `COc1cc(Oc2ccc3ncn(C)c(=O)c3c2)cnc1OCc1ccc(C2CC2)cc1` [Compound 16], the pIC50 is 8.30 in assay [1] and 7.66 in assay [2].
Regarding `COc1cc(Oc2ccc3ncccc3c2)cnc1OCc1ccc(C2CC2)cc1` [Compound 18], the pIC50 in assay [1] is 8.30; in assay [2], 7.48.
Consider `Cc1cnc2ccc(Oc3cnc4c(c3)OC[C@@H](c3ccc(C5CC5)nc3)O4)cn2c1=O` [Compound 61], for which the pIC50 in assay [1] was 7.54; in assay [2] it was 8.52.
Consider `COc1ccc([C@@H]2COc3cc(Oc4ccnc(-c5cnn(C)c5)c4)cnc3O2)nc1` [Compound 82], for which the values for the pIC50 in assay [1] and in assay [2] were 7.89 and 7.96, respectively.
In the same order, the values of `Cc1cnc2ccc(Oc3cnc(OCc4ccc(C5CC5)cc4)nc3)cn2c1=O` [Compound 42] are 7.11 and 7.89.
Consider `COc1cc(Cc2ccnc(-c3cnn(C)c3)c2)cnc1OCc1ccc(C2CC2)cc1` [Compound 46, 2-((4-cyclopropylbenzyl)oxy)-3-methoxy-5-((2-(1-methyl-1H-pyrazol-4-yl)pyridin-4-yl)methyl)pyridine], for which the pIC50 in assay [1] was 8.30; in assay [2] it was 7.55.
The like results for `O=c1ccnc2ccc(Oc3cnc4c(c3)OC[C@H](c3ccc(C5CC5)cn3)O4)cn12` [Compound 71] were, in that order, 6.94 and 7.52.
As for `COc1cc(Oc2ccc3ncc(C4CC4)c(=O)n3c2)cnc1OCc1ccc(C)cc1` [Compound 36], the pIC50 is 7.25 in assay [1] and 7.68 in assay [2].
In the same order, the values of `COc1ccc([C@@H]2COc3cc(Oc4ccnc(-c5cnn(C)c5)c4)cnc3O2)cn1` [Compound 69] are 7.77 and 8.52.
Consider `O=c1ccnc2ccc(Oc3cnc4c(c3)OC[C@@H](c3ccc(C5CC5)nc3)O4)cn12` [Compound 59], for which the pIC50 in assay [1] was 7.30; in assay [2], 8.30.
The like results for `O=c1ccnc2ccc(Oc3cnc4c(c3)OC[C@H](c3ccc(C5CC5)nc3)O4)cn12` [Compound 60] were, in that order, 7.28 and 8.22.
As for `Cc1cnc2ccc(Oc3cnc4c(c3)OC[C@H](c3ccc(C5CC5)cn3)O4)cn2c1=O` [Compound 75], the pIC50 in assay [1] is 6.93; in assay [2], 7.82.
`COc1cc(Oc2ccc3nccc(=O)n3c2)cnc1OCc1ccc(C2CC2)cc1` [Compound 25]: the values for the pIC50 in assay [1] and in assay [2] were 8.40 and 8.10, respectively.
As to `COc1cc(Oc2ccnc(-c3cnn(C)c3)c2)cnc1OCc1ccc(C2CC2)cc1` [Compound 12], the pIC50 in assay [1] was 8.30; in assay [2], 7.89.
As for `COc1ccc(COc2ncc(Oc3ccc4ncc(C)c(=O)n4c3)cc2OC)cc1` [Compound 6], the pIC50 was 8.40 in assay [1] and 8.15 in assay [2].
For `COc1cccc(CCOc2ncc(Oc3ccc4ncc(C)c(=O)n4c3)cc2OC)c1` [Compound 39], the pIC50 in assay [1] was 6.52; in assay [2], 7.82.
Turning to `COc1ccc([C@@H]2COc3cc(Oc4ccc5ncc(C)c(=O)n5c4)cnc3O2)cn1` [Compound 86], the pIC50 was 7.25 in assay [1] and 8.10 in assay [2].
In the same order, the values of `Cn1cc(-c2cc(Oc3cnc4c(c3)OCC(c3ccc(C5CC5)cc3)O4)ccn2)cn1` (racemic) [Compound 51, (R/S)-3-(4-cyclopropylphenyl)-7-((2-(1-methyl-1H-pyrazol-4-yl)pyridin-4-yl)oxy)-2,3-dihydro-[1,4]dioxino[2,3-b]pyridine] are 8.22 and 8.10.
In the case of `Cc1cnc2ccc(Oc3cnc4c(c3)OC[C@H](c3ccc(C5CC5)nc3)O4)cn2c1=O` [Compound 62], the figures for the pIC50 in assay [1] and in assay [2] were 7.33 and 8.40, respectively.
On to `Cc1cnc2ccc(Oc3cnc4c(c3)OC[C@H](c3ccc(C5CC5)cc3)O4)cn2c1=O` [Compound 58], for which the pIC50 in assay [1] was 7.59; in assay [2], 7.92.
Turning to `COc1ccc(CCOc2ncc(Oc3ccc4ncc(C)c(=O)n4c3)cc2OC)cc1` [Compound 37], the values for the pIC50 in assay [1] and in assay [2] were 6.85 and 7.48, respectively.
As to `O=c1ccnc2ccc(Oc3cnc4c(c3)OCC(c3ccc(C5CC5)cc3)O4)cn12` (racemic) [Compound 56, (R/S)-7-((3-(4-cyclopropylphenyl)-2,3-dihydro-[1,4]dioxino[2,3-b]pyridin-7-yl)oxy)-4H-pyrido[1,2-a]pyrimidin-4-one], the pIC50 in assay [1] was 7.85; in assay [2], 7.92.
With `COc1cc(Oc2ccc3c(c2)C2=NCCN2C=N3)cnc1OCc1ccc(C2CC2)cc1` [Compound 17], the pIC50 in assay [1] was 7.74; in assay [2] it was 7.82.
As to `Cc1cnc2ccc(Oc3cnc(OCc4ccc(Cl)cc4)nc3)cn2c1=O` [Compound 41], the values for the pIC50 in assay [1] and in assay [2] were 6.26 and 7.64, respectively.
Consider `COc1ccc([C@H]2COc3cc(Oc4ccnc(-c5cnn(C)c5)c4)cnc3O2)nc1` [Compound 81], for which the pIC50 in assay [1] was 7.49; in assay [2], 8.00.
On to `COc1cc(Oc2ccc3ncc(N)c(=O)n3c2)cnc1OCc1ccc(C)cc1` [Compound 35], for which the pIC50 in assay [1] was 7.92; in assay [2] it was 8.22.
Turning to `Cn1cc(-c2cc(Oc3cnc4c(c3)O[C@H](c3ccc(C5CC5)cc3)CO4)ccn2)cn1` (single isomer, unassigned) [Compound 49, (R/S)-2-(4-cyclopropylphenyl)-7-((2-(1-methyl-1H-pyrazol-4-yl)pyridin-4-yl)oxy)-2,3-dihydro-[1,4]dioxino[2,3-b]pyridine], the pIC50 in assay [1] was 7.22; in assay [2], 7.64.
Turning to `COc1ccc([C@H]2COc3cc(Oc4ccc5nccc(=O)n5c4)cnc3O2)cn1` [Compound 83, (S)-7-((3-(6-methoxypyridin-3-yl)-2,3-dihydro-[1,4]dioxino[2,3-b]pyridin-7-yl)oxy)-4H-pyrido[1,2-a]pyrimidin-4-one], the results for the pIC50 in assay [1] and in assay [2] were 6.86 and 8.15, respectively.
